Measurements as given in US20100003724A1, “CHEMICALLY MODIFIED NUCLEOSIDE 5'-TRIPHOSPHATES FOR THERMALLY INITIATED AMPLIFICATION OF NUCLEIC ACID” (priority 2008, published 2010).
Like-named read-outs stand apart in the source and are kept apart here.

Experiments:
[1] = molecular target: Klenow (exo-) DNA polymerase (Escherichia coli, UniProt P00582, D355A/E357A); conditions: for substrate for Klenow (exo-) DNA polymerase (incorporation and extension): after a 40 minute preheating step at 95° C.; for substrate for Klenow (exo-) DNA polymerase (incorporation into the primer): room temperature, unheated 3′-substituted dTTP
Klenow (exo-) DNA polymerase, sequence (P00582 324-928 D355A/E357A): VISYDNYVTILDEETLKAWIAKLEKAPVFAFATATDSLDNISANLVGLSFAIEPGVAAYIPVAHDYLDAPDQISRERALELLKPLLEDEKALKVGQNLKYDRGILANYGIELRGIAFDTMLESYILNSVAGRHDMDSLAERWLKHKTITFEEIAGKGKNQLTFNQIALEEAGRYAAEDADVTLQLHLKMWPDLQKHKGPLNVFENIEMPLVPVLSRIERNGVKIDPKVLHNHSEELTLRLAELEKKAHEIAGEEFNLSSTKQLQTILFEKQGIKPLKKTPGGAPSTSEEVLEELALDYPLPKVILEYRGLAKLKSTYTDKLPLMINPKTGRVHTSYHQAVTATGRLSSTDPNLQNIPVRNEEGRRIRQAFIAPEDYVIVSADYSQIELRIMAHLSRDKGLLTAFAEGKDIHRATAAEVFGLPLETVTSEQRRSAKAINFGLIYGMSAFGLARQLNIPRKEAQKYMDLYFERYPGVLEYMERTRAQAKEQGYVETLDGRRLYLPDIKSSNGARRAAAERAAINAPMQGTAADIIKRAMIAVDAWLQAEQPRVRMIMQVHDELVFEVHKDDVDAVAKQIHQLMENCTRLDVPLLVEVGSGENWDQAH
Procedure: The ability of Klenow (exo-) DNA polymerase to perform room temperature primer extensions of a pre-annealed primer/template duplex was evaluated in 50 mM NaCl, 10 mM Tris-HCl (pH 7.9), 10 mM MgCl, 1 mM DTT, 0.5 units of enzyme, 0.2 mM dATP and in the presence of one of the following 3′-substituted dTTP derivatives: 3′-THP-dTTP, 3′-MTHP-dTTP or 3′-THF-dTTP (FIG. 4 (top)).

Taq DNA polymerase = Taq DNA polymerase (Thermus aquaticus, UniProt P19821); experiment: Primer extension with Taq DNA polymerase at room temperature; conditions: 25 units of enzyme
Taq DNA polymerase, sequence (P19821 whole entry): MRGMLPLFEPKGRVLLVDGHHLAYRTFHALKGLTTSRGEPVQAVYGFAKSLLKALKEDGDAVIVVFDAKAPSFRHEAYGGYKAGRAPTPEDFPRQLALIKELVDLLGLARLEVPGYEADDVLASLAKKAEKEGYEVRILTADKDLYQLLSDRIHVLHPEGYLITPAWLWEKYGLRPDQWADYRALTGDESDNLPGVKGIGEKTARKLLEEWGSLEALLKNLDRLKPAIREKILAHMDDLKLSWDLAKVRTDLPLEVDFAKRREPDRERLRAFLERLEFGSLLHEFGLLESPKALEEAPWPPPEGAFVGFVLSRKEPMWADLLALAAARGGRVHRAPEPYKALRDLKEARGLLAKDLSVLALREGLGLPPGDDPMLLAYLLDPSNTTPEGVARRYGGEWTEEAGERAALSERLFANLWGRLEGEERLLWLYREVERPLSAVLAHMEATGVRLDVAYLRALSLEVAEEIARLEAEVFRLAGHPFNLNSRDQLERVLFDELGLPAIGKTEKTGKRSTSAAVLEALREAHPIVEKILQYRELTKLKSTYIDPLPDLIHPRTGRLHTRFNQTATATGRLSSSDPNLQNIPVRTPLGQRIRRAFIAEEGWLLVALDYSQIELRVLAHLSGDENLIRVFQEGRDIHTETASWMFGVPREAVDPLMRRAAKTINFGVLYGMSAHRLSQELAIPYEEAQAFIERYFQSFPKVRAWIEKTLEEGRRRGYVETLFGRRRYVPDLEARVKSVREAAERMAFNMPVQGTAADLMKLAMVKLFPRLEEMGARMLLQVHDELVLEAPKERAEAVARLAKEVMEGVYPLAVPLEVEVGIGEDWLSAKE
Excerpt: The extension experiments were repeated with Taq DNA polymerase at room temperature utilizing 25 units of enzyme and either 3′-THF-dTTP or 3′-Ac-dTTP.

[2] = for Concentration of unmodified dTTP: 250 μM solution of 3′-substituted dTTP, 95° C., PCR buffer (pH 8.4 at 25° C.); for cleavage of the 3′-ester group: within 60 minutes of incubation
Procedure: Conversion of the 3′-substituted dTTP to the corresponding unmodified dTTP was investigated in PCR buffer (pH 8.4 at 25° C., Table 1) at 20° C. and 95° C. The reactions were monitored by analysis of the incubated mixtures by reverse-phase and anion-exchange HPLC.

[3] = system: Lambda DNA and HIV-1 DNA systems; conditions: one 3′-substituted dTTP derivative in place of natural dTTP; compared to all four natural dNTPs
Procedure: For the Lambda DNA and HIV-1 DNA systems (Table 2), PCR conditions were used where non-specific amplification products, including primer dimers, readily formed in the presence of template. These conditions employed 1 μM concentration of both the forward and reverse oligonucleotide primers, 10 HIV-1 or 10,000 Lambda DNA copies of template, 0.2 mM each of dNTP or 3′-substituted dNTP, and 2.0 mM MgCl2. Each mixture contained 50 ng of Human Genomic DNA. The thermal cycling parameters were as follows: 95° C. for 2 min; 40 cycles of [95° C. for 40 sec; 56° C. for 30 sec; 72° C. for 2 min]; 72° C. for 7 min.

[4] = system: HIV-1 system (365 bp HIV-1 fragment); experiment: Hot Start PCR with 3′-THF-dNTPs substituted for natural dNTPs; assay type: biochemical; conditions: 3′-THF dNTP substituted for its natural dNTP
Procedure: Each mixture contained 50 ng of Human Genomic DNA.
All permutations of substitution of one, two, three or four 3′-THF-dNTPs (from the group of 3′-THF-dATP, […], 3′-THF-dCTP and 3′-THF-dTTP) were examined for their natural counterpart and the resultant effect on reducing primer dimer formation. […] A combined substitution of two or more 3′-THF derivatives of dNTPs for natural dNTPs further improved PCR performance. Thus, combination of 3′-THF-dTTP and 3′-THF-dATP, as a replacement for dTTP and dATP, nearly completely eliminated non-specific amplification products in the HIV-1 system (approximately 10-fold improvement, FIG. 7). Overall, there was a strong correlation between using more than one type of 3′-substituted dNTP in a PCR mixture with an efficiency and specificity of amplicon production.

Cc1cn([C@H]2C[C@H](OC3CCCO3)[C@@H](COP(=O)(O)OP(=O)(O)OP(=O)(O)O)O2)c(=O)[nH]c1=O (stereo partly drawn) [3′-THF-dTTP]
substrate for Klenow (exo-) DNA polymerase (incorporation and extension) [1]: became substrates for enzyme
substrate for Klenow (exo-) DNA polymerase (incorporation into the primer) [1]: not substrates
substrate for Taq DNA polymerase (Taq DNA polymerase): not substrates
Concentration of unmodified dTTP ([2]; 2 min): 7 µM
Concentration of unmodified dTTP ([2]; 10 min): 39 µM
Concentration of unmodified dTTP ([2]; 20 min): 57 µM

COC1(O[C@H]2C[C@H](n3cc(C)c(=O)[nH]c3=O)O[C@@H]2COP(=O)(O)OP(=O)(O)OP(=O)(O)O)CCOCC1 [3′-MTHP-dTTP]
substrate for Klenow (exo-) DNA polymerase (incorporation and extension) [1]: became substrates for enzyme
substrate for Klenow (exo-) DNA polymerase (incorporation into the primer) [1]: not substrates
Concentration of unmodified dTTP ([2]; 2 min): 2 µM
Concentration of unmodified dTTP ([2]; 10 min): 21 µM
Concentration of unmodified dTTP ([2]; 20 min): 47 µM

Cc1cn([C@H]2C[C@H](OC3CCCCO3)[C@@H](COP(=O)(O)OP(=O)(O)OP(=O)(O)O)O2)c(=O)[nH]c1=O (stereo partly drawn) [3′-THP-dTTP]
substrate for Klenow (exo-) DNA polymerase (incorporation and extension) [1]: became substrates for enzyme
substrate for Klenow (exo-) DNA polymerase (incorporation into the primer) [1]: not substrates
overall PCR performance [3]: not as good as with natural dTTP
Concentration of unmodified dTTP ([2]; 2 min): ≦1 μM
Concentration of unmodified dTTP ([2]; 10 min): 10 µM
Concentration of unmodified dTTP ([2]; 20 min): 16 µM

COCC(=O)O[C@H]1C[C@H](n2cc(C)c(=O)[nH]c2=O)O[C@@H]1COP(=O)(O)OP(=O)(O)OP(=O)(O)O [3′-O[CH3OAc]]
Concentration of unmodified dTTP ([2]; 2 min): 35 µM
Concentration of unmodified dTTP ([2]; 10 min): 140 µM
Concentration of unmodified dTTP ([2]; 20 min): 195 µM
cleavage of the 3′-ester group ([2]; PCR buffer, room temperature): 4%

CC(=O)OC1CC(n2cc(C)c(=O)[nH]c2=O)OC1COP(=O)(O)OP(=O)(O)OP(=O)(O)O (stereo not drawn) [3′-Ac-dTTP, 3′-O-acetyl-dTTP]
substrate for Klenow (exo-) DNA polymerase (incorporation into the primer) [1]: not a substrate
overall PCR performance [3]: not as good as with natural dTTP
substrate for Taq DNA polymerase (Taq DNA polymerase): not substrates
Concentration of unmodified dTTP ([2]; 2 min): 0 µM
Concentration of unmodified dTTP ([2]; 10 min): 5 µM
Concentration of unmodified dTTP ([2]; 20 min): 18 µM
cleavage of the 3′-acetyl group ([2]; PCR buffer, room temperature, after 24 hours of incubation): 6%

Cc1cn([C@H]2C[C@H](OC(=O)COc3ccccc3)[C@@H](COP(=O)(O)OP(=O)(O)OP(=O)(O)O)O2)c(=O)[nH]c1=O [3′-O[PhOAc]]
Concentration of unmodified dTTP ([2]; 2 min): 50 µM
Concentration of unmodified dTTP ([2]; 10 min): 170 µM
Concentration of unmodified dTTP ([2]; 20 min): 209 µM
cleavage of the 3′-ester group ([2]; PCR buffer, room temperature): 10%

Nc1ncnc2c1ncn2C1CC(OC2CCCO2)C(COP(=O)(O)OP(=O)(O)OP(=O)(O)O)O1 (stereo not drawn) [3′-THF-dATP]
PCR performance (non-specific amplification products, specific amplicon formation) [4]: strong reduction of both non-specific amplification products and an increase of specific amplicon formation
